The source of these data is EP0104070A2, “Fungicidal N-phenylcarbamates” (priority 1982, dated 1984).

Data set [1] relates to drug-resistant strain of Sphaerotheca fuliginea. The note with it: Podosphaera fuliginea, in Cucumis sativus, 240 h, read-out: Prevention value when inoculated with drug-resistant strain (%).
Description: (§2) Protective activity test on powdery mildew of cucumber (Sphaerotheca fuliginea):-A flower pot of 90 ml volume was filed with sandy soil, and seeds of cucumber (var: Sagami-hanjiro) were sowed therein. Cultivation was carried out in a greenhouse for 8 days. Onto the resulting seedlings having cotyledons, the test compound formulated in emulsifiable concentrate or wettable powder and diluted with water was sprayed at a rate of 10 ml per pot. […] Ten days thereafter, the infectious state of the plants was observed.
(§3) The disease severity was calculated according to the following equation: [formula]
(§4) The prevention value was calculated according to the following equation: [formula]
Data set [2] relates to drug-resistant strain of Cercospora beticola. The note with it: in Beta vulgaris, 240 h, read-out: Prevention value when inoculated with drug-resistant strain (%).
Description: as §3, §4
(§5) Preventive effect on cercospora leaf spot of sugarbeet (Cercospora beticola):-A flower pot of 90 ml volume was filled with sandy soil, and seeds of sugarbeet (var: Detroit dark red) were sowed therein. Cultivation was carried out in a greenhouse for 20 days. Onto the resulting seedlings, the test compound formulated in emulsifiable concentrate or wettable powder and diluted with water was sprayed at a rate of 10 ml per pot. […] The pot was covered with a polyvinyl chloride sheet to make a condition of high humidity, and cultivation was continued in the greenhouse for 10 days.
Data set [3] has as its system drug-sensitive strain of Sphaerotheca fuliginea. The note with it: Podosphaera fuliginea, in Cucumis sativus, 240 h, read-out: Prevention value when inoculated with drug-sensitive strain (%).
Description: as §2, §3, §4
Data set [4] deals with drug-sensitive strain of Cercospora beticola. The note with it: in Beta vulgaris, 240 h, read-out: Prevention value when inoculated with drug-sensitive strain (%).
Description: as §3, §4, §5
The subject of data set [5] is drug-resistant strain of Botrytis cinerea. Description: Preventive effect on gray mold of cucumber (Experiment 5), drug-resistant strain. The note with it: cucumber seedlings, spray, mycelial disks, 20°C for 3 days.
Description: as §3, §4
(§6) Preventive effect on gray mold of cucumber (Botrytis cinerea):-Plastic pots of 90 ml volume was filled with sandy soil, and seeds of cucumber (var: Sagami-hanjiro) were sowed therein. Cultivation was carried out in a greenhouse for 8 days to obtain cucumber seedlings expanding cotyledons. Onto the resulting seedlings, the test compound formulated in emulsifiable concentrate or wettable powder and diluted with water was sprayed at a rate of 10 ml per pot. […] After the plants were infected by incubating under high humidity at 20°C for 3 days, the rates of disease severity were observed.
The subject of data set [6] is drug-sensitive strain of Botrytis cinerea. Description: Preventive effect on gray mold of cucumber (Experiment 5), drug-sensitive strain. The note with it: cucumber seedlings, spray, mycelial disks, 20°C for 3 days.
Description: as §3, §4, §6
Data set [7] concerns peanut (var: Chiba hanryusei). Description: Phytotoxicity to crop plants (Experiment 9), peanut. The data set is classed as in vivo. Details: key: -: No abnormality; +: Abnormality due to phytotoxicity observed in a part of crop plants; ++: Abnormality due to phytotoxicity observed in entire crop plants; +++: Crop plants withered due to phytotoxicity. The note with it: spray, 1000 ppm active ingredient, 10 days. An excerpt: (§1) Phytotoxicity to crop plants:-

The subject of a further data set is apple (var: Kogyoku). Description: Phytotoxicity to crop plants (Experiment 9), apple. The data set is classed as in vivo. The arrangement: key: -: No abnormality; +: Abnormality due to phytotoxicity observed in a part of crop plants; ++: Abnormality due to phytotoxicity observed in entire crop plants; +++: Crop plants withered due to phytotoxicity.
From the text: as §1

In data set [8] the test system is wheat (var: Norin No. 61). The data set can be described thus: Phytotoxicity to crop plants (Experiment 9), wheat. The data set is classed as in vivo. Details: key: -: No abnormality; +: Abnormality due to phytotoxicity observed in a part of crop plants; ++: Abnormality due to phytotoxicity observed in entire crop plants; +++: Crop plants withered due to phytotoxicity.
From the text: as §1

Data set [9] has as its system drug-resistant strain of Mycosphaerella melonis. The note with it: cucumber seedlings, spray, 200 ppm active ingredient, 25°C for 4 days.
Description: as §3, §4
(§7) Preventive effect on gummy stem blight of cucumber (Mycosphaerella melonis):-Plastic pots of 90 ml volume was filled with sandy soil, and seeds of cucumber (var: Sagami-hanjiro) were sowed therein. Cultivation was carried out in a greenhouse for 8 days to obtain cucumber seedlings expanding cotyledons. Onto the resulting seedlings, the test compound formulated in emulsifiable concentrate or wettable powder and diluted with water was sprayed at a rate of 10 ml per pot. […] After the plants were infected by incubating under high humidity at 25°C for 4 days, the rates of disease severity were observed.
The test system of data set [10] is drug-resistant strain of Cercospora arachidicola. The note with it: peanut seedlings, spray, 10 days.
Description: as §3, §4
(§8) Preventive effect on brown leaf-spot of peanut (Cercospora arachidicola):-
(§9) A plastic pot of 90 ml volume was filled with sandy soil, and seeds of peanut (var: Chiba hanryusei) were sowed therein. Cultivation was carried out in a greenhouse for 14 days. Onto the resulting seedlings, the test compound formulated in emulsifiable concentrate or wettable powder and diluted with water was sprayed at a rate of 10 ml per pot. […] The resulting plants were covered with a polyvinyl chloride sheet to make a humide condition and cultivated in the greenhouse for 10 days.
Another data set relates to Pyricularia oryzae. The data set is classed as in vivo.
For data set [11], the system named is drug-sensitive strain of Mycosphaerella melonis. The note with it: cucumber seedlings, spray, 200 ppm active ingredient, 25°C for 4 days.
Description: as §3, §4, §7
The subject of data set [12] is drug-sensitive strain of Cercospora arachidicola. The note with it: peanut seedlings, spray, 10 days.
Description: as §3, §4, §8, §9
Data set [13] concerns drug-resistant strain of Penicillium italicum. Description: Preventive effect on green mold of orange (Experiment 7), drug-resistant strain. The note with it: orange fruits immersed for 1 minute, 200 ppm active ingredient, 24 days.
The subject of data set [14] is drug-sensitive strain of Penicillium italicum. Description: Preventive effect on green mold of orange (Experiment 7), drug-sensitive strain. The note with it: orange fruits immersed for 1 minute, 200 ppm active ingredient, 24 days.
Data set [15] concerns drug-resistant strain of Venturia nashicola. Description: Preventive effect on scab of pear (Experiment 3), drug-resistant strain. The note with it: pear seedlings, spray, 200 ppm active ingredient.
Description: as §3, §4
(§10) Preventive effect on scab of pear (Venturia nashicola):-
(§11) A plastic pot of 90 ml volume was filled with sandy soil, and seeds of pear (var: Chojuro) were sowed therein. Cultivation was carried out in a greenhouse for 20 days. Onto the resulting seedlings, the test compound formulated in emulsifiable concentrate or wettable powder and diluted with water was sprayed at a rate of 10 ml per pot. […] The resulting plants were placed at 20°C under a condition of high humidity for 3 days and then at 20°C under irradiation with a fluorescent lamp for 20 days.
The test system of data set [16] is drug-sensitive strain of Venturia nashicola. The data set can be described thus: Preventive effect on scab of pear (Experiment 3), drug-sensitive strain. The note with it: pear seedlings, spray, 200 ppm active ingredient.
Description: as §3, §4, §10, §11
Where [17] appears, read: spray, 1000 ppm active ingredient, 10 days.

Where two headings read alike, the source gives them in different places.

For `CC(C)OC(=O)Nc1cccc(Cl)c1` [Chlorpropham, isopropyl N-(3-chlorophenyl)carbamate], the pest or weed control at 200 ppm in [1], in data set [2], in data set [3] and in data set [4] was 0% in each case.
For the compound `CCOc1cc(NC(=S)OC)cc(C=NOC)c1OCC` [Compound No. 29, (3,4-diethoxy-5-methoxyiminomethyl)thiocarbanilic acid O-methyl ester], the “Prevention value when inoculated with drug-resistant strain (%)” value in [5] (500 ppm active ingredient) came to 100%. In addition, in data set [6] (500 ppm active ingredient), the “Prevention value when inoculated with drug-sensitive strain (%)” value is 0%.
Take `O=C(Nc1cccc(Cl)c1)OCC#CCCl`: the pest or weed control at 200 ppm in data set [1] came out at 25%; in [2], 34%; in data set [3], 0%; in [4] it was 0%. The “Phytotoxicity Peanut” value in data set [7] is given as “++”. Also, in the data set on apple (var: Kogyoku) (in vivo), the “Phytotoxicity Apple” value was “++”. Besides, the “Phytotoxicity Wheat” value in data set [8] (in vivo) was “-”.
For `O=C(Nc1cccc(Cl)c1)OCCCl` [CEPC], the pest or weed control at 200 ppm in [1], in data set [2], in data set [3] and in data set [4] was 0% in each case. Further, in data set [7], the “Phytotoxicity Peanut” value is recorded as “++”. The “Phytotoxicity Apple” value in the data set on apple (var: Kogyoku) (setting [17]) is “++”. Further, in data set [8] (setting [17]), the “Phytotoxicity Wheat” value is “-”.
As to `CCOc1c(Cl)cc(NC(=S)OC)cc1COC` [Compound No. 13], the “Prevention value when inoculated with drug-resistant strain (%)” value in data set [9] stood at 100%; in data set [10] (200 ppm active ingredient) it was 97%; in data set [5] (200 ppm active ingredient) it was 100%. In addition, the “Prevention value (%)” value in the data set on Pyricularia oryzae (rice seedlings of 3-leaf stage, spray, 1000 ppm active ingredient, 28°C for 3 days) is listed as 97%. For the same compound, in data set [7], the “Phytotoxicity Peanut” value is given as “-”. The “Prevention value when inoculated with drug-sensitive strain (%)” value in data set [11], in [12] (200 ppm active ingredient) and in [6] (200 ppm active ingredient) was 0% each time. Besides, the “Phytotoxicity Apple” value in the data set on apple (var: Kogyoku) (setting [17]) is on record as “-”. In data set [8] (setting [17]), the “Phytotoxicity Wheat” value is given as “-”.
`COC(=O)Nc1nc2ccccc2[nH]1` [Carbendazim, methyl benz-imidazol-2-ylcarbamate]: the pest or weed control at 200 ppm in data set [1] was 0%; in data set [2], 0%; in data set [3], 100%; in data set [4] it was 100%.
`CC(C)OC(=O)Nc1ccccc1` [Propham, isopropyl N-phenylcarbamate]: the pest or weed control at 200 ppm in data set [1], in [2], in [3] and in [4] was 0% each time.
Take `C#CC(C)OC(=O)Nc1cccc(Cl)c1` (centres unmarked) [Chlorbufam, 1-methyl-2-propynyl N-(3-chlorophenyl)carbamate]: the pest or weed control at 200 ppm in [1], in data set [2], in [3] and in data set [4] was 0% each time.
In the case of `COC(=O)Nc1ccc(Cl)c(Cl)c1` [Swep], the “Phytotoxicity Peanut” value in data set [7] is listed as “+”. The “Phytotoxicity Apple” value in the data set with apple (var: Kogyoku) (setting [17]) is recorded as “++”. Moreover, in data set [8] (setting [17]), the “Phytotoxicity Wheat” value is recorded as “++”.
`CCOc1c(Cl)cc(NC(=S)OC(C)C)cc1COC` [Compound No. 14, (3-chloro-4-ethoxy-5-methoxymethyl)thiocarbanilic acid O-isopropyl ester]: the “Prevention value when inoculated with drug-resistant strain (%)” value in data set [9] and in [5] (200 ppm active ingredient) was 100% throughout. Also, the results for the pest or weed control at 200 ppm in data set [1] and in data set [3] were 100% and 0%, respectively. Also, in [7], the “Phytotoxicity Peanut” value is given as “-”. The pest or weed control at 500 ppm amounted to 100% in data set [2] and 0% in [4]. Moreover, the “Prevention value when inoculated with drug-sensitive strain (%)” value in data set [11] and in [6] (200 ppm active ingredient) was 0% throughout. Besides, in the data set on apple (var: Kogyoku) (setting [17]), the “Phytotoxicity Apple” value is given as “-”. Moreover, in [8] (setting [17]), the “Phytotoxicity Wheat” value was “-”.
Take `CCOP(=O)(Sc1ccccc1)Sc1ccccc1` [Edifenphos]: in the data set with Pyricularia oryzae (in vivo), the “Prevention value (%)” value is given as 97%.
Consider `CCOc1c(C)cc(NC(=S)OCCF)cc1C` [Compound No. 9], for which the “Prevention value when inoculated with drug-resistant strain (%)” value in data set [9] turned out to be 94%; in [10] (500 ppm active ingredient), 100%; in [5] (200 ppm active ingredient), 100%; in [13] it was 94%. In addition, the pest or weed control at 200 ppm in data set [1] was 100%; in data set [2], 100%; in data set [3], 0%; in data set [4], 0%. In [7], the “Phytotoxicity Peanut” value is “-”. In addition, the “Prevention value when inoculated with drug-sensitive strain (%)” value in data set [11], in data set [12] (500 ppm active ingredient), in [6] (200 ppm active ingredient) and in [14] was 0% each time. The “Phytotoxicity Apple” value in the data set with apple (var: Kogyoku) (setting [17]) was “-”. For the same compound, in [8] (setting [17]), the “Phytotoxicity Wheat” value is “-”.
As for `C=CCOC(=O)c1cc(NC(=S)OC)cc(COC)c1OCC` [Compound No. 25, (3-methoxymethyl-4-ethoxy-5-allyloxycarbonyl)thiocarbanilic acid O-methyl ester], the “Prevention value when inoculated with drug-resistant strain (%)” value in data set [5] (500 ppm active ingredient) was found to be 100%. Further, in data set [6] (500 ppm active ingredient), the “Prevention value when inoculated with drug-sensitive strain (%)” value is on record as 0%.
With `COC(=O)NC(=S)Nc1ccccc1NC(=S)NC(=O)OC` [Thiophanate-methyl, 1,2-bis(3-methoxycarbonyl-2-thioureido)benzene], the “Prevention value when inoculated with drug-resistant strain (%)” value in data set [15], in [9], in [10] (200 ppm active ingredient), in data set [5] (200 ppm active ingredient) and in data set [13] was 0% throughout. Further, the pest or weed control at 200 ppm in [1] worked out at 0%; in [2], 0%; in data set [3], 100%; in data set [4], 100%. Moreover, the “Prevention value when inoculated with drug-sensitive strain (%)” value in [11], in data set [12] (200 ppm active ingredient), in data set [6] (200 ppm active ingredient), in data set [16] and in [14] was 100% throughout.
On to `CCCCNC(=O)n1c(NC(=O)OC)nc2ccccc21` [Benomyl, methyl 1-(butylcarbamoyl)benzimidazol-2-ylcarba-mate], for which the “Prevention value when inoculated with drug-resistant strain (%)” value in [15], in [9], in [10] (200 ppm active ingredient), in data set [5] (200 ppm active ingredient) and in data set [13] was 0% throughout. In addition, the pest or weed control at 200 ppm in [1] is 0%; in data set [2], 0%; in data set [3], 100%; in data set [4] it was 100%. The “Prevention value when inoculated with drug-sensitive strain (%)” value in [11], in data set [12] (200 ppm active ingredient), in data set [6] (200 ppm active ingredient), in data set [16] and in data set [14] was 100% throughout.
`c1ccc2[nH]c(-c3cscn3)nc2c1` [Thiabendazole, 2-(4-thiazolyl)benzimidazole]: in data set [5] (200 ppm active ingredient), the “Prevention value when inoculated with drug-resistant strain (%)” value is 0%. The “Prevention value when inoculated with drug-sensitive strain (%)” value in [6] (200 ppm active ingredient) is 100%.
